Laboratory results as given in the NIST ThermoML archive (doi:10.1016/j.jct.2008.10.010).
± gives the expanded uncertainty stated by the source.

Experiment: molar heat capacity at constant pressure; xn = mol fraction of the nth substance listed
Details: 101.3 kPa, Liquid, Small sample (50 mg) DSC

CCC(C)(C)O [2-methylbutan-2-ol] + CCCCCCC
Details | molar heat capacity at constant pressure [J/K/mol]
292.14 K, x1 = 0.9609 | 240.86 ± 3.7
292.16 K, x1 = 0.0249 | 228.51 ± 3.5
293.14 K, x1 = 0.0061 | 223.05 ± 3.5
293.14 K, x1 = 0.0249 | 228.85 ± 3.5
293.14 K, x1 = 0.0494 | 233.49 ± 3.6
293.14 K, x1 = 0.1 | 238.13 ± 3.7
293.14 K, x1 = 0.1547 | 240.82 ± 3.7
293.14 K, x1 = 0.1999 | 242.32 ± 3.8
293.14 K, x1 = 0.2993 | 244.48 ± 3.8
293.14 K, x1 = 0.4051 | 245.2 ± 3.8
293.14 K, x1 = 0.4986 | 245.35 ± 3.8
293.14 K, x1 = 0.5981 | 245.12 ± 3.8
293.14 K, x1 = 0.7015 | 244.38 ± 3.8
293.14 K, x1 = 0.8023 | 243.13 ± 3.8
293.14 K, x1 = 0.9139 | 242.22 ± 3.8
293.14 K, x1 = 0.9609 | 241.95 ± 3.8
294.15 K, x1 = 0.0061 | 223.39 ± 3.5
294.15 K, x1 = 0.0249 | 229.18 ± 3.5
294.15 K, x1 = 0.0494 | 233.86 ± 3.6
294.15 K, x1 = 0.1 | 238.71 ± 3.7
294.15 K, x1 = 0.1547 | 241.58 ± 3.7
294.15 K, x1 = 0.1999 | 243.15 ± 3.8
294.15 K, x1 = 0.2993 | 245.43 ± 3.8
294.15 K, x1 = 0.4051 | 246.27 ± 3.8
294.15 K, x1 = 0.4986 | 246.46 ± 3.8
294.15 K, x1 = 0.5981 | 246.23 ± 3.8
294.15 K, x1 = 0.7015 | 245.52 ± 3.8
294.15 K, x1 = 0.8023 | 244.34 ± 3.8
294.15 K, x1 = 0.9139 | 243.38 ± 3.8
294.15 K, x1 = 0.9609 | 243.11 ± 3.8
295.14 K, x1 = 0.0061 | 223.7 ± 3.5
295.14 K, x1 = 0.0249 | 229.37 ± 3.5
295.14 K, x1 = 0.0494 | 234.25 ± 3.6
295.14 K, x1 = 0.1 | 239.22 ± 3.7
295.14 K, x1 = 0.1547 | 242.31 ± 3.8
295.14 K, x1 = 0.1999 | 243.96 ± 3.8
295.14 K, x1 = 0.2993 | 246.32 ± 3.8
295.14 K, x1 = 0.4051 | 247.28 ± 3.8
295.14 K, x1 = 0.4986 | 247.54 ± 3.8
295.14 K, x1 = 0.5981 | 247.38 ± 3.8
295.14 K, x1 = 0.7015 | 246.7 ± 3.8
295.14 K, x1 = 0.8023 | 245.54 ± 3.8
295.14 K, x1 = 0.9139 | 244.5 ± 3.8
295.14 K, x1 = 0.9609 | 244.22 ± 3.8
296.14 K, x1 = 0.0061 | 223.96 ± 3.5
296.14 K, x1 = 0.0249 | 229.63 ± 3.6
296.14 K, x1 = 0.0494 | 234.59 ± 3.6
296.14 K, x1 = 0.1 | 239.76 ± 3.7
296.14 K, x1 = 0.1547 | 242.94 ± 3.8
296.14 K, x1 = 0.1999 | 244.6 ± 3.8
296.14 K, x1 = 0.2993 | 247.2 ± 3.8
296.14 K, x1 = 0.4051 | 248.27 ± 3.9
296.14 K, x1 = 0.4986 | 248.61 ± 3.9
296.14 K, x1 = 0.5981 | 248.5 ± 3.9
296.14 K, x1 = 0.7015 | 247.88 ± 3.8
296.14 K, x1 = 0.8023 | 246.68 ± 3.8
296.14 K, x1 = 0.9139 | 245.64 ± 3.8
296.14 K, x1 = 0.9609 | 245.31 ± 3.8
297.15 K, x1 = 0.0061 | 224.33 ± 3.5
297.15 K, x1 = 0.0249 | 229.81 ± 3.6
297.15 K, x1 = 0.0494 | 235.01 ± 3.6
297.15 K, x1 = 0.1 | 240.36 ± 3.7
297.15 K, x1 = 0.1547 | 243.63 ± 3.8
297.15 K, x1 = 0.1999 | 245.46 ± 3.8
297.15 K, x1 = 0.2993 | 248.18 ± 3.8
297.15 K, x1 = 0.4051 | 249.33 ± 3.9
297.15 K, x1 = 0.4986 | 249.76 ± 3.9
297.15 K, x1 = 0.5981 | 249.72 ± 3.9
297.15 K, x1 = 0.7015 | 249.04 ± 3.9
297.15 K, x1 = 0.8023 | 247.89 ± 3.8
297.15 K, x1 = 0.9139 | 246.86 ± 3.8
297.15 K, x1 = 0.9609 | 246.4 ± 3.8
298.14 K, x1 = 0.0061 | 224.65 ± 3.5
298.14 K, x1 = 0.0249 | 230.08 ± 3.6
298.14 K, x1 = 0.0494 | 235.35 ± 3.6
298.14 K, x1 = 0.1 | 240.89 ± 3.7
298.14 K, x1 = 0.1547 | 244.27 ± 3.8
298.14 K, x1 = 0.1999 | 246.18 ± 3.8
298.14 K, x1 = 0.2993 | 249.05 ± 3.9
298.14 K, x1 = 0.4051 | 250.35 ± 3.9
298.14 K, x1 = 0.4986 | 250.83 ± 3.9
298.14 K, x1 = 0.5981 | 250.81 ± 3.9
298.14 K, x1 = 0.7015 | 250.24 ± 3.9
298.14 K, x1 = 0.8023 | 249.08 ± 3.9
298.14 K, x1 = 0.9139 | 247.97 ± 3.8
298.14 K, x1 = 0.9609 | 247.48 ± 3.8
298.16 K, x1 = 0.0061 | 224.66 ± 3.5
298.16 K, x1 = 0.0249 | 230.09 ± 3.6
298.16 K, x1 = 0.0494 | 235.36 ± 3.6
298.16 K, x1 = 0.1 | 240.91 ± 3.7
298.16 K, x1 = 0.1547 | 244.3 ± 3.8
298.16 K, x1 = 0.1999 | 246.2 ± 3.8
298.16 K, x1 = 0.2993 | 249.07 ± 3.9
298.16 K, x1 = 0.4051 | 250.39 ± 3.9
298.16 K, x1 = 0.4986 | 250.87 ± 3.9
298.16 K, x1 = 0.5981 | 250.84 ± 3.9
298.16 K, x1 = 0.7015 | 250.29 ± 3.9
298.16 K, x1 = 0.8023 | 249.11 ± 3.9
298.16 K, x1 = 0.9139 | 248 ± 3.8
298.16 K, x1 = 0.9609 | 247.52 ± 3.8
299.14 K, x1 = 0.0061 | 224.99 ± 3.5
299.14 K, x1 = 0.0249 | 230.35 ± 3.6
299.14 K, x1 = 0.0494 | 235.67 ± 3.6
299.14 K, x1 = 0.1 | 241.48 ± 3.7
299.14 K, x1 = 0.1547 | 244.98 ± 3.8
299.14 K, x1 = 0.1999 | 246.99 ± 3.8
299.14 K, x1 = 0.2993 | 249.97 ± 3.9
299.14 K, x1 = 0.4051 | 251.31 ± 3.9
299.14 K, x1 = 0.4986 | 251.91 ± 3.9
299.14 K, x1 = 0.5981 | 251.9 ± 3.9
299.14 K, x1 = 0.7015 | 251.35 ± 3.9
299.14 K, x1 = 0.8023 | 250.25 ± 3.9
299.14 K, x1 = 0.9139 | 249.1 ± 3.9
299.14 K, x1 = 0.9609 | 248.6 ± 3.9
300.15 K, x1 = 0.0061 | 225.26 ± 3.5
300.15 K, x1 = 0.0249 | 230.51 ± 3.6
300.15 K, x1 = 0.0494 | 236 ± 3.7
300.15 K, x1 = 0.1 | 241.9 ± 3.8
300.15 K, x1 = 0.1547 | 245.57 ± 3.8
300.15 K, x1 = 0.1999 | 247.7 ± 3.8
300.15 K, x1 = 0.2993 | 250.81 ± 3.9
300.15 K, x1 = 0.4051 | 252.27 ± 3.9
300.15 K, x1 = 0.4986 | 252.92 ± 3.9
300.15 K, x1 = 0.5981 | 253 ± 3.9
